According to PubChem BioAssay (NCI):
“And” between values parts separate entries of the source, which are not always exact repeats. Equal entries are not always repeated.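 1) Cells in 96-well plates. 2) Compound, 48 h, 5 concentrations. 3) Linear interpolation between surrounding doses. 4) Unreached endpoint = highest concentration. GI50: concentration for 50% inhibition of growth. The concentration for full growth arrest is given as TGI.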

How the values were obtained:
Experiment in all cases: NCI tumour cell line growth inhibition, 48 h
786-0 renal = test system: 786-0 renal
A549 NSCLC = test system: A549 NSCLC
ACHN renal = test system: ACHN renal
CAKI-1 renal = test system: CAKI-1 renal
CCRF-CEM leukemia = test system: CCRF-CEM leukemia
COLO 205 colon = test system: COLO 205 colon
DLD-1 colon = test system: DLD-1 colon
DMS 114 small cell lung = test system: DMS 114 small cell lung
DMS 273 small cell lung = test system: DMS 273 small cell lung
EKVX NSCLC = test system: EKVX NSCLC
HCC-2998 colon = test system: HCC-2998 colon
HCT-116 colon = test system: HCT-116 colon
HCT-15 colon = test system: HCT-15 colon
HL-60(TB) leukemia = test system: HL-60(TB) leukemia
HOP-18 NSCLC = test system: HOP-18 NSCLC
HOP-62 NSCLC = test system: HOP-62 NSCLC
HT29 colon = test system: HT29 colon
IGROV1 ovarian = test system: IGROV1 ovarian
K-562 leukemia = test system: K-562 leukemia
KM12 colon = test system: KM12 colon
KM20L2 colon = test system: KM20L2 colon
LOX IMVI melanoma = test system: LOX IMVI melanoma
LXFL 529 NSCLC = test system: LXFL 529 NSCLC
M14 melanoma = test system: M14 melanoma
M19-MEL melanoma = test system: M19-MEL melanoma
MALME-3M melanoma = test system: MALME-3M melanoma
MOLT-4 leukemia = test system: MOLT-4 leukemia
NCI-H226 lung = test system: NCI-H226 lung
NCI-H23 lung = test system: NCI-H23 lung
NCI-H460 lung = test system: NCI-H460 lung
NCI-H522 lung = test system: NCI-H522 lung
OVCAR-3 ovarian = test system: OVCAR-3 ovarian
OVCAR-4 ovarian = test system: OVCAR-4 ovarian
OVCAR-8 ovarian = test system: OVCAR-8 ovarian
RPMI-8226 leukemia = test system: RPMI-8226 leukemia
RXF 393 renal = test system: RXF 393 renal
SF-268 CNS = test system: SF-268 CNS
SF-295 CNS = test system: SF-295 CNS
SF-539 CNS = test system: SF-539 CNS
SK-MEL-2 melanoma = test system: SK-MEL-2 melanoma
SK-MEL-28 melanoma = test system: SK-MEL-28 melanoma
SK-MEL-5 melanoma = test system: SK-MEL-5 melanoma
SK-OV-3 ovarian = test system: SK-OV-3 ovarian
SN12C renal = test system: SN12C renal
SNB-19 CNS = test system: SNB-19 CNS
SNB-75 CNS = test system: SNB-75 CNS
SNB-78 CNS = test system: SNB-78 CNS
SR leukemia = test system: SR leukemia
SW-620 colon = test system: SW-620 colon
TK-10 renal = test system: TK-10 renal
U251 CNS = test system: U251 CNS
UACC-257 melanoma = test system: UACC-257 melanoma
UACC-62 melanoma = test system: UACC-62 melanoma
UO-31 renal = test system: UO-31 renal
XF 498 CNS = test system: XF 498 CNS
BT-549 breast = test system: BT-549 breast
DU-145 prostate = test system: DU-145 prostate
HS 578T breast = test system: HS 578T breast
MCF7 breast = test system: MCF7 breast
MDA-MB-231 breast = test system: MDA-MB-231 breast
MDA-MB-435 = test system: MDA-MB-435
MDA-N = test system: MDA-N
NCI/ADR-RES ovarian = test system: NCI/ADR-RES ovarian
OVCAR-5 ovarian = test system: OVCAR-5 ovarian
P388 leukemia = test system: P388 leukemia
P388/ADR leukemia = test system: P388/ADR leukemia
PC-3 prostate = test system: PC-3 prostate
RXF-631 renal = test system: RXF-631 renal
SN12K1 renal = test system: SN12K1 renal
T-47D breast = test system: T-47D breast

**Q.** Which results are given for `Cc1nc(N2N=C(c3ccc(Cl)cc3)CCC2=O)sc1[N+](=O)[O-]`?
**A.** TGI (786-0 renal): > 100 µM; TGI (A549 NSCLC): > 100 µM; TGI (ACHN renal): > 100 µM; TGI (CAKI-1 renal): > 100 µM; TGI (CCRF-CEM leukemia): > 100 µM; TGI (COLO 205 colon): > 100 µM; TGI (DLD-1 colon): > 100 µM; TGI (DMS 114 small cell lung): > 100 µM; TGI (DMS 273 small cell lung): > 100 µM; TGI (EKVX NSCLC): > 100 µM; TGI (HCC-2998 colon): > 100 µM; TGI (HCT-116 colon): > 100 µM; TGI (HCT-15 colon): > 100 µM; TGI (HL-60(TB) leukemia): > 100 µM; TGI (HOP-18 NSCLC): > 100 µM; TGI (HOP-62 NSCLC): > 100 µM; TGI (HT29 colon): > 100 µM; TGI (IGROV1 ovarian): > 100 µM; TGI (K-562 leukemia): > 100 µM; TGI (KM12 colon): > 100 µM; TGI (KM20L2 colon): > 100 µM; TGI (LOX IMVI melanoma): > 100 µM; TGI (LXFL 529 NSCLC): > 100 µM; TGI (M14 melanoma): > 100 µM; TGI (M19-MEL melanoma): > 100 µM; TGI (MALME-3M melanoma): > 100 µM; TGI (MOLT-4 leukemia): > 100 µM; TGI (NCI-H226 lung): > 100 µM; TGI (NCI-H23 lung): > 100 µM; TGI (NCI-H460 lung): > 100 µM; TGI (NCI-H522 lung): > 100 µM; TGI (OVCAR-3 ovarian): > 100 µM; TGI (OVCAR-4 ovarian): > 100 µM; TGI (OVCAR-8 ovarian): > 100 µM; TGI (RPMI-8226 leukemia): > 100 µM; TGI (RXF 393 renal): > 100 µM; TGI (SF-268 CNS): > 100 µM; TGI (SF-295 CNS): > 100 µM; TGI (SF-539 CNS): > 100 µM; TGI (SK-MEL-2 melanoma): > 100 µM; TGI (SK-MEL-28 melanoma): > 100 µM; TGI (SK-MEL-5 melanoma): > 100 µM; TGI (SK-OV-3 ovarian): > 100 µM; TGI (SN12C renal): > 100 µM; TGI (SNB-19 CNS): > 100 µM; TGI (SNB-75 CNS): > 100 µM; TGI (SNB-78 CNS): > 100 µM; TGI (SR leukemia): > 100 µM; TGI (SW-620 colon): > 100 µM; TGI (TK-10 renal): > 100 µM; TGI (U251 CNS): > 100 µM; TGI (UACC-257 melanoma): > 100 µM; TGI (UACC-62 melanoma): > 100 µM; TGI (UO-31 renal): > 100 µM; TGI (XF 498 CNS): > 100 µM

**Q.** What does the source list for `COc1cc2c(c(OC)c1OC)-c1ccc(OC)c(=O)cc1[C@@H](NC(C)=O)CC2`?
**A.** TGI (786-0 renal): > 100 µM; TGI (A549 NSCLC): > 100 µM; TGI (ACHN renal): > 100 µM; TGI (BT-549 breast): > 70.9 µM; GI50 (DLD-1 colon): 0.0176 µM; TGI (DLD-1 colon): > 625 µM; TGI (DMS 114 small cell lung): 0.0724 µM; TGI (DU-145 prostate): 0.0538 µM; GI50 (EKVX NSCLC): 16.7 µM; TGI (EKVX NSCLC): > 625 µM; TGI (HCC-2998 colon): 1.01 µM and 7.43 µM; GI50 (HCT-116 colon): < 0.01 µM and 0.0625 µM; TGI (HCT-15 colon): > 100 µM and 25.8 µM and 50.4 µM; GI50 (HOP-62 NSCLC): 0.866 µM; TGI (HOP-62 NSCLC): > 625 µM; TGI (HS 578T breast): > 100 µM; TGI (IGROV1 ovarian): > 100 µM; GI50 (KM20L2 colon): 0.00285 µM and 0.018 µM; TGI (KM20L2 colon): 0.00625 µM and 0.036 µM and < 0.0625 µM; TGI (LOX IMVI melanoma): > 100 µM; TGI (M14 melanoma): > 100 µM and 32 µM; TGI (M19-MEL melanoma): > 522 µM; GI50 (MALME-3M melanoma): 4.33 µM and 1.35 µM; GI50 (MCF7 breast): < 0.01 µM and 0.00342 µM and < 0.0114 µM; GI50 (MDA-MB-231 breast): 7.13 µM; TGI (MDA-MB-231 breast): > 100 µM; TGI (MDA-MB-435): < 0.01 µM; TGI (MDA-N): 0.833 µM; GI50 (MOLT-4 leukemia): < 0.01 µM and 0.0352 µM and 0.0625 µM; GI50 (NCI-H460 lung): 0.625 µM; GI50 (NCI/ADR-RES ovarian): 0.488 µM; TGI (OVCAR-4 ovarian): > 100 µM; GI50 (OVCAR-5 ovarian): > 578 µM; TGI (OVCAR-5 ovarian): > 625 µM; GI50 (OVCAR-8 ovarian): 1.35 µM; TGI (OVCAR-8 ovarian): > 100 µM; TGI (P388 leukemia): 2.7 µM; TGI (P388/ADR leukemia): 55.9 µM; TGI (PC-3 prostate): > 100 µM; TGI (RPMI-8226 leukemia): > 100 µM and 217 µM; TGI (RXF-631 renal): > 91.2 µM; GI50 (SK-MEL-2 melanoma): 0.48 µM; TGI (SK-MEL-28 melanoma): > 625 µM; TGI (SN12C renal): > 100 µM and > 93.4 µM and 131 µM; GI50 (SN12K1 renal): 0.00298 µM; TGI (SN12K1 renal): 0.00625 µM and < 0.0625 µM; GI50 (SR leukemia): < 0.01 µM; TGI (SR leukemia): > 100 µM; TGI (SW-620 colon): > 394 µM; GI50 (T-47D breast): > 100 µM; TGI (T-47D breast): > 100 µM; GI50 (TK-10 renal): > 100 µM; TGI (TK-10 renal): > 100 µM; TGI (UACC-62 melanoma): > 100 µM and > 77.4 µM and 91.7 µM; GI50 (UO-31 renal): 4.74 µM and 1.09 µM and 1.33 µM; TGI (UO-31 renal): > 625 µM
